From patent publication US20080261895A1 (Wyeth, priority 2006, published 2008)
Several values for one entry are separate records, joined by “and”; a condition that tells them apart may be missing. Identical values can stand only once. Marks after values point to notes of the source that are not given here.

How the values were obtained:
[1] = Stability of [14C]DVS in control dog plasma; assay type: in vitro ADME; settings: 37° C., up to 24 hours
Procedure: (§1) The stability of [^14C]DVS in dog plasma was determined. [^14C]DVS (0.012 mg/mL, final concentration) was added to control dog plasma and incubated in a shaking water bath set to 37° C. Duplicate aliquots (1 mL) were removed at 0, 1, 4, 8, and 24 hours. Samples were extracted as described above and radiopurity assayed by HPLC analysis.

[2] = system: norepinephrine levels in the brains; experiment: Norepinephrine levels in the brains of rats; assay type: in vivo; settings: 30 mg/kg (free base), administered subcutaneously, male Sprague Dawley rats
[3] = Urinary excretion and metabolite profile by radiochromatography, dogs; assay type: in vivo, beagle dogs; settings: single oral 30 mg/kg
Procedure: (§2) For each dog, urine and feces were collected separately, with urine collected on dry ice and feces collected at room temperature. Collections were from 0-8 and 8-24 hours for urine and 0-24 hours for feces. Urine and fecal samples were shipped on dry ice to Wyeth Research, Biotransformation Division (Collegeville, Pa.) for analysis. Fecal samples were homogenized in approximately five volumes (v/w) of water. Aliquots of approximately 0.2 grams of the homogenate were placed into combusto-cones, weighed and allowed to air dry. These samples were then oxidized and radioactivity content determined. The remaining urine samples and fecal homogenates were stored at −70° C. until metabolite analysis. Blood samples and fecal homogenates were oxidized in a Model 307 Tri-Carb sample oxidizer, using Carbosorb® E (6 mL) as trapping agent and PermaFluor® E^+ (10 mL) as scintillant. The background reading (average of control blood or fecal samples) was subtracted from each sample reading. Aliquots of urine and plasma were analyzed directly following the addition of 10 mL of Ultima Gold™ scintillation fluid.
Urine samples collected between 8 and 24 hours post-dose were analyzed for metabolite profiles. Aliquots of urine were centrifuged at 14000 rpm in an Eppendorf Model 5415C centrifuge for 10 minutes. The supernatant was transferred to a fresh tube and analyzed for radioactivity content and by HPLC for metabolite profiling. Selected samples were also analyzed by LC/MS to characterize the radioactive peaks.
(§3) Chromatographic analyses were performed with a Waters Alliance model 2690 HPLC system (Waters Corp., Milford, Mass.). It was equipped with a built-in autosampler and was in-line with a model 2487 tunable UV detector, set to monitor 225 nm, and a FloOne β Model 515 radioactivity flow detector (Perkin Elmer) with a 250 μL LQTR flow cell. The flow rate of Ultima Flow M scintillation fluid was 3 mL/min, providing a mixing ratio of scintillation cocktail to mobile phase of 3:1. Separation of the metabolite peaks was accomplished on a Phenomenex Luna C18(2) column, 250×4.6 mm, 5 micron (Phenomenex, Torrance, Calif.), using a linear gradient of two mobile phases, A and B. Mobile phase A was 10 mM ammonium acetate, pH 5.5, and mobile phase B was acetonitrile. The flow rate was 1 mL/min.

[4] = Fecal excretion and metabolite profile by radiochromatography, rats; assay type: in vivo, Sprague Dawley rats; settings: for % of the radioactive dose excreted in feces: rats
Procedure: Urine and feces were collected separately on dry ice from three animals per sex. Collections were from 0-8 and 8-24 hours for male rats and 0-8 hours for female rats. Fecal samples were homogenized in approximately five volumes (v/w) of water. Aliquots of approximately 0.4 grams of the homogenate were placed into combusto-cones, weighed and allowed to air dry. These samples were then oxidized. The remaining urine samples and fecal homogenates were stored at −70° C. until metabolite analysis.
Fecal homogenates collected from male rats between 8 and 24 hours post-dose were analyzed for metabolite profiles. Aliquots of approximately 1 gram of fecal homogenate were centrifuged at 3500 rpm and 4° C. in a Sorvall Super 21 centrifuge for 10 minutes. The supernatant was transferred to a clean tube. The residue was re-suspended with 1 mL of water:acetonitrile (1:1, v:v) and centrifuged as described above. The resulting supernatant was combined with the original supernatant and the residue re-suspended with 1 mL of acetonitrile. The suspension was centrifuged as described above, and the supernatants were combined and analyzed for radioactivity. The supernatants were then concentrated under a stream of nitrogen in a Turbo Vap to remove the acetonitrile. An aliquot of the aqueous residue was analyzed by HPLC for profiling. Selected samples were also analyzed by LC/MS to characterize the radioactive peaks.
as §3, with “β Model 525 radioactivity flow” for “β Model 515 radioactivity flow”, “fluid was 1 mL/min, providing” for “fluid was 3 mL/min, providing”, “phase of 5:1. Separation of” for “phase of 3:1. Separation of”, “C18(2) column, 150×2.0 mm, 5” for “C18(2) column, 250×4.6 mm, 5”, “acetate, pH 6.0, and mobile” for “acetate, pH 5.5, and mobile”, “rate was 0.2 mL/min.” for “rate was 1 mL/min.”

[5] = Fecal excretion and metabolite profile by radiochromatography, dogs; assay type: in vivo, beagle dogs; settings: single oral 30 mg/kg
Procedure: as §2
Fecal homogenates collected up to 24 hours post-dose were analyzed for metabolite profiles. Aliquots of approximately 2 grams of fecal homogenate were transferred to a fresh tube, an equal volume of acetonitrile (v/w) was added, and the tube vortexed. Samples were then centrifuged at 14000 rpm in an Eppendorf Model 5415C centrifuge for 10 minutes. The supernatant was transferred to a clean tube. The residue was re-suspended with 1 mL acetonitrile and centrifuged as described above. The resulting supernatant was combined with the original supernatant and analyzed for radioactivity. The supernatants were then concentrated under a stream of nitrogen in a Turbo Vap to remove the acetonitrile. An aliquot of the aqueous residue was analyzed by HPLC for profiling. Selected samples were also analyzed by LC/MS to characterize the radioactive peaks.
as §3

[6] = Stability of [14C]DVS in control dog urine; assay type: in vitro ADME; settings: 37° C., up to 24 hours
Procedure: as §1, with “urine” for “plasma”, “(0.025” for “(0.012”, “Aliquots” for “Duplicate aliquots”, “8” for “8,”

[7] = includes 0-8 and 8-24 hour time points, 30 mg/kg

CN(C)CC(c1ccc(O)cc1)C1(O)CCCCC1.O=C(O)CCC(=O)O (stereo not drawn) [DVS, O-desmethylvenlafaxine succinate]
Stability of [14C]DVS in control dog plasma [1]: stable | norepinephrine levels in the brains [2]: significantly increased | Radioactivity as % of Dose in urine, Mean ± S.D. [3, 7]: 74.8 ± 13.0^b % | Radioactivity as % of Dose in urine, individual dogs [3, 7]: 85.4% and 63.0% and 86.6% and 64.0% | Radioactivity as % of Dose in urine, Mean ± S.D. ([3]; includes 0-8 and 8-24 hour time points, listed as [^14C]DVS, 30 mg/kg): 75% | Compounds Detected by Radiochromatography in urine, percent of total peaks, Mean ± S.D. ([3]; urine 8-24 hours post-dose): 5.8 ± 1.6% | Compounds Detected by Radiochromatography in urine, percent of total peaks, individual dogs ([3]; urine 8-24 hours post-dose, mean of 2 analyses, 30 mg/kg): 7.9% and 5.7% and 5.4% and 4.0% | Radioactivity as % of Dose in feces, Mean ± S.D. ([4]; male rats, feces 8-24 hours post-dose, single oral 20 mg/kg): 9.6 ± 1.1% | Compounds Detected by Radiochromatography in feces, percent of total peaks, individual rats ([4]; male rats, feces 8-24 hours post-dose, single oral 20 mg/kg, 20 mg/kg): 19.6% and 20.8% and 22.0% | Radioactivity as % of Dose in feces, individual rats ([4]; male rats, feces 8-24 hours post-dose, single oral 20 mg/kg, listed as [^14C]DVS, 20 mg/kg): 10.8% and 9.5% and 8.5^b % | % of the radioactive dose excreted in feces ([4]; 0-8 hour fecal samples): Less than 0.1% | % of the radioactive dose excreted in feces ([4]; within 24 hours of dosing): approximately 10% | Compounds Detected by Radiochromatography in feces, percent of total peaks, individual dogs ([5]; feces 0-24 hours post dose (dog 7 until 48 hours), average of 2 analyses): 78.6% and 50.6% and 85.7% and 88.8% | Radioactivity as % of Dose in feces, individual dogs ([5]; feces 0-24 hours post dose (dog 7 until 48 hours), listed as [^14C]DVS): 4.4% and 0.3% and 4.0% and 3.3% | Compounds Detected by Radiochromatography in feces, percent of total peaks, Mean ± S.D. ([5]; feces 0-24 hours post dose): 76% and 75.9 ± 17.4% | Radioactivity as % of Dose in feces, Mean ± S.D. ([5]; feces 0-24 hours post dose): approximately 3% | Radioactivity as % of Dose in feces, Mean ± S.D. ([5]; feces 0-24 hours post dose, listed as [^14C]DVS): 3.0 ± 1.9% | Stability of [14C]DVS in control dog urine [6]: stable
